This note sets out measurements from US20210299193A1, “SYNBIOTIC COMPOSITION FOR IMPROVING IMMUNE RESPONSE AND ANTIOXIDANT CAPACITY DURING AGING AND A PROCESS FOR THE PREPARATION THEREOF” (COUNCIL OF SCIENTIFIC & INDUSTRIAL RESEARCH, priority 2018, published 2021).

Assay [1] has as its system probiotic bacteria (Lactobacillus species). The assay can be described thus: Effect of EGCG on growth of probiotic bacteria (OD 600 nm). To be noted: 0.1% EGCG in media, vs control without EGCG. The assay is classed as cell-based. The source says: (§1) FIG. 1. Effect of EGCG on growth of probiotic and pathogenic bacterial species. The growth was monitored by inoculating a 5% inoculum of respective bacterial species into media containing 0.1% of EGCG. Growth was compared to that of control (without EGCG) to determine the influence of EGCG by spectrophotometric method (600 nm). Lactobacillus rhamnosus (LR); Lactobacillus fermentum (LF); Lactobacillus planatarum (LP); Escherichia coli (EC; MTCC 43); Salmonella typhi (ST; MTCC 733); Pseudomonas aeruginosa (PS; MTCC 424); Staphylococcus aureus (SA; MTCC 96); Klebsiella pneumoniae (K; MTCC 109); Shigella flexneri (SF; MTCC 1457); Vibrio cholera (VC; MTCC 3904).
(§2) To test prebiotic efficacy, the effect of EGCG on growth of probiotic bacteria (Lactobacillus species) and pathogenic bacteria [Escherichia coli (EC); Salmonella typhi (ST); Pseudomonas (PS); Staphylococcus aureus (SA); Klebsiella (K); Shigella flexneri (SF); Vibrio cholera (VC)] was assessed. The probiotic bacteria were isolated, identified and characterized while the pathogenic bacteria were procured from MTCC, Chandigarh.

A further assay concerns pathogenic bacteria. The assay can be described thus: Effect of EGCG on growth of pathogenic bacteria (OD 600 nm). The assay is classed as cell-based. Conditions: 0.1% EGCG in media, vs control without EGCG.
Excerpt: as §1, §2

The subject of the next assay is splenocytes. Briefly: Flow cytometric analysis of splenocyte T cell sub-populations and activation status in aging animals. The format is in vivo, swiss albino mice. Conditions: 16 months old mice, oral supplementation 30 days. For orientation: Flow cytometry measures light scatter and fluorescence of single cells or particles in a stream.

Protocol for splenocytes: The probiotic Lactobacillus, EGCG or a combination of the two were orally administered to aged animals for 31 days before sacrificing and subsequent analysis of various immune and oxidative stress associated parameters.
Effect of synbiotics supplementation on T cells sub-population of aging animals. Animals were fed with respective diets for 31 days following which splenocytes were analyzed by flow cytometry. (A) %CD3+ cells (B) %NK cells and (C) %NKT cells. Bars with different letter indicate significant difference at p<0.05.
Effect of synbiotics supplementation on activation status of T cells sub-population of aging animals. Animals were fed with respective diets for 31 days following which splenocytes were analyzed by flow cytometry. (A) Activated T cells (B) Activated NK cells and (C) Activated NKT cells. Bars with different letter indicate significant difference at p<0.05.
The synbiotic composition of EGCG and probiotic Lactobacillus sp was assessed for effects on cellular immune response using aging murine model. Animals (16 months old) were randomized into four groups of six mice each: 1 control group and 3 experimental groups comprising of either only EGCG (PRE), probiotic Lactobacillus sp (PRO) or a combination of both (SYN). All animals were fed on commercially available pelleted mice chow (Golden feeds, New Delhi, India) and water ad libitum. The experimental animal groups were each supplemented with EGCG (@100 mg/kg/animal/day), probiotic Lactobacilli sp (10^8 cfu/ml) or a combination of both above (synbiotic) respectively for 30 consecutive days. At the end of the feeding regimen, the animals were sacrificed for various immunological and antioxidative analysis.

Regarding `O=C(O[C@@H]1Cc2c(O)cc(O)cc2O[C@@H]1c1cc(O)c(O)c(O)c1)c1cc(O)c(O)c(O)c1` [EGCG, Epigallocatechin gallate], the “average decrease in growth of probiotics” value in assay [1] (5% inoculum, average over probiotic species) was found to be 14.05%. The “decrease in growth of probiotics, Max” value in assay [1] (maximum among probiotic species) stood at 31%. Further, the “decrease in growth of probiotics, Min” value in assay [1] (minimum among probiotic species) was 1.4%. In addition, the “average growth inhibition of pathogens” value in the assay with pathogenic bacteria (5% inoculum, average over all pathogens) is 52.05%. For the same compound, the “growth inhibition of pathogens, Max” value in the assay with pathogenic bacteria (maximum among pathogens) is recorded as 89.88%. The “growth inhibition of pathogens, Min” value in the assay with pathogenic bacteria (minimum among pathogens) came to 32.7%. Also, in the assay with splenocytes, the “natural killer T cells (NKT) subpopulation” value is recorded as “no significant difference”. Further, in the assay on splenocytes (vs control group), the “activation of NK cells” value was “decrease”, the “activation status of NKT cells” value is on record as “no changes” and the “numbers of natural killer cells (NK)” value is on record as “appeared to decrease”.
